Tests used:
PDE II = target: T1, PDE II (Bos taurus, UniProt P14099); assay: Inhibition of the phosphodiesterases in vitro: cGMP-stimulated PDE II; format: biochemical, porcine or bovine; conditions: [3H]cAMP substrate, 10^-6 mol/l cGMP added; concentration at which the reaction rate is reduced by 50%
T1 construct: isolated either from porcine or bovine heart myocardium; from tissue; host or cells: porcine or bovine heart myocardium
T1 sequence (P14099 1-921): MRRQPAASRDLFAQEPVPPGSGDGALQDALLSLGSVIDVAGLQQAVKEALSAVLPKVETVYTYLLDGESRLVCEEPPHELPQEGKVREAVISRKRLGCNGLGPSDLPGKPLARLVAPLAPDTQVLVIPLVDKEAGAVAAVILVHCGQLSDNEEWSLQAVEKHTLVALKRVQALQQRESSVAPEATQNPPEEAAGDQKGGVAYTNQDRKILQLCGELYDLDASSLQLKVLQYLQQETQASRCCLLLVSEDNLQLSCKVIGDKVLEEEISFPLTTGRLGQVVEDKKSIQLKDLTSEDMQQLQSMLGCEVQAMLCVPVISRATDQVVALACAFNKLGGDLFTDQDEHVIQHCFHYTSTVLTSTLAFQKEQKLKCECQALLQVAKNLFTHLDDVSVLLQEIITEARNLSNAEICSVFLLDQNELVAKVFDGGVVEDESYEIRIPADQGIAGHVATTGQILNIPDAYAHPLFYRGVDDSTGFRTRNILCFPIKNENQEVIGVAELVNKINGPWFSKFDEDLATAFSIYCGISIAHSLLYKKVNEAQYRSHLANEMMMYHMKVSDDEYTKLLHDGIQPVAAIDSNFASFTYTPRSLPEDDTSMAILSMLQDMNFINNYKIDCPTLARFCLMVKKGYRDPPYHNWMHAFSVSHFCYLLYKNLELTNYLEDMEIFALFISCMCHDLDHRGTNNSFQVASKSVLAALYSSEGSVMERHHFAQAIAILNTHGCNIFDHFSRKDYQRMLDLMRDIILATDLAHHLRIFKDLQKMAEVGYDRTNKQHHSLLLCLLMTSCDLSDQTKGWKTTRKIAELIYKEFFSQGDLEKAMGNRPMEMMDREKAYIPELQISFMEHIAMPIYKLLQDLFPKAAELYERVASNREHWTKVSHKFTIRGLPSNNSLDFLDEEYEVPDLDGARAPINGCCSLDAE
Protocol: (§1) The cGMP-stimulated PDE II, the cGMP-inhibited PDE III and the cAMP-specific PDE IV were isolated either from porcine or bovine heart myocardium. The Ca^2+-calmodulin-stimulated PDE I was isolated from porcine aorta, porcine brain or, preferably, from bovine aorta. The cGMP-specific PDE V was obtained from porcine small intestine, porcine aorta, human platelets and, preferably, from bovine aorta. Purification was carried out by anion exchange chromatography over MonoQ® Pharmacia, essentially following the method of M. Hoey and Miles D. Houslay, Biochemical Pharmacology, Vol. 40, 193–202(1990) and C. Lugman et al., Biochemical Pharmacology, Vol. 35, 1743–1751(1986).
(§2) The enzyme activity is determined using a test mixture of 100 ml in 20 mM tris/HCI-buffer pH 7.5 containing 5 mM MgCl2, 0.1 mg/ml of bovine serum albumin and either 800Bq[^3H]cAMP or [^3H]cGMP. The final concentration of the nucleotides in question is 10^−6 mol/l. The reaction is initiated by addition of the enzyme and the amount of enzyme is such that during the incubation time of 30 min, approximately 50% of the substrate are converted. To test the cGMP-stimulated PDE II, [^3H]cAMP is used as substrate and 10^−6 mol/l of non-labelled cGMP are added to the mnixture. To test the Ca^2+-calmodulin-dependent PDE I, 1 mM of CaCl2 and […] are added to the reaction mixture. The reaction is quenched by addition of […] of acetonitrile containing 1 mM cAMP and 1 mM AMP. 100 ml of the reaction mixture are separated by HPLC, and the cleavage products are determined quantitatively on-line using a continuous scintillation counter. The substance concentration measured is the concentration at which the reaction rate is reduced by 50%. Additionally, the “phosphodiesterase [^3H] cAMP-SPA enzyme assay” and the “phosphodiesterase [^3H] cGMP-SPA enzyme assay” from Amersham Life Science were used for testing. The test was carried out according to the test protocol of the manufacturer. To determine the activity of PDE II, the [^3H]cAMP SPA assay was used, and 10^−6M cGMP were added to the reaction mixture to activate the enzyme. To measure PDE I, 10^−7M calmodulin and 1 mM CaCl2 were added to the reaction mixture. PDE V was measured using the [^3H]cGMP SPA assay.

PDE V = target: T2, PDE V (Bos taurus, UniProt Q28156); assay: Inhibition of the phosphodiesterases in vitro: cGMP-specific PDE V; format: biochemical, porcine, human or, preferably, bovine; conditions: [3H]cGMP substrate; concentration at which the reaction rate is reduced by 50%
T2 construct: Purification was carried out by anion exchange chromatography over MonoQ; from tissue; host or cells: porcine small intestine, porcine aorta, human platelets or, preferably, bovine aorta
Protocol: The cGMP-stimulated PDE II, the cGMP-inhibited PDE III and the cAMP-specific PDE IV were isolated either from porcine or bovine heart myocardium. The Ca^2+-calmodulin-stimulated PDE I was isolated from porcine aorta, porcine brain or, preferably, from bovine aorta. The cGMP-specific PDE V was obtained from porcine small intestine, porcine aorta, human platelets and, preferably, from bovine aorta.
as §2

PDE I = assay: Inhibition of the phosphodiesterases in vitro: Ca2+-calmodulin-stimulated PDE I; format: biochemical, porcine or, preferably, bovine; conditions: concentration at which the reaction rate is reduced by 50%; CaCl2 and calmodulin added
Protocol: as §1, §2

| IC50 (PDE II) [nM] | IC50 (PDE V) [nM] | IC50 (PDE I) [nM] | Compound |
| --- | --- | --- | --- |
| > 1000 |  |  | CCCc1nc(C)c2c(=O)[nH]c(-c3cc(S(=O)(=O)N4CCN(CC)CC4)ccc3OCC)nn12 [Example 19, 2-[2-Ethoxy-5-(4-ethyl-piperazine-1-sulphonyl)-phenyl]-5-methyl-7-propyl-3H-imidazo[5,1-f][1,2,4]triazin-4-one] |
| > 1000 | 3 | 50 | CCCc1nc(C)c2c(=O)[nH]c(-c3cc(S(=O)(=O)N(CCC)CCO)ccc3OCC)nn12 [Example 275] |
| > 1000 | 1 | 100 | CCCc1nc(C)c2c(=O)[nH]c(-c3cc(S(=O)(=O)N4CCC(O)CC4)ccc3OCC)nn12 [Example 26, 2-[2-Ethoxy-5-(4-hydroxy-piperidine-1-sulphonyl)-phenyl]-5-methyl-7-propyl-3H-imidazo[5,1-f][1,2,4]triazin-4-one] |
| > 1000 | 4 | 100 | CCCc1nc(C)c2c(=O)[nH]c(-c3cc(S(=O)(=O)N(CC)CC)ccc3OCC)nn12 [Example 32, N,N-Diethyl-4-ethoxy-3-(5-methyl-4-oxo-7-propyl-3,4-dihydro-imidazo[5,1-f][1,2,4]triazin-2-yl)benzenesulphonamide] |
| > 1000 | 10 | 300 | CCCc1nc(C)c2c(=O)[nH]c(-c3cc(S(=O)(=O)N4CCOCC4)ccc3OCC)nn12 [Example 260] |

| Compound | IC50 (PDE II) [nM] | IC50 (PDE V) [nM] | IC50 (PDE I) [nM] |
| --- | --- | --- | --- |
| CCCc1nc(C)c2c(=O)[nH]c(-c3cc(S(=O)(=O)N4CCN(CCO)CC4)ccc3OCC)nn12 [Example 27, 2-{2-Ethoxy-5-[4-(2-hydroxy-ethyl)-piperazine-1-sulphonyl]-phenyl}-5-methyl-7-propyl-3H-imidazo[5,1-f][1,2,4]triazin-4-one] | > 1000 | 3 | 200 |
| CCCc1nc(C)c2c(=O)[nH]c(-c3cc(S(=O)(=O)N4CCN(C)CC4)ccc3OCC)nn12 [Example 16, 2-[2-Ethoxy-5-(4-methyl-piperazine-1-sulphonyl)-phenyl]-5-methyl-7-propyl-3H-imidazo[5,1-f][1,2,4]triazin-4-one] | > 1000 | 2 | 300 |

— patent US7122540B2, “2-Phenyl substituted imidazotriazinones as phosphodiesterase inhibitors” (Bayer HealthCare AG, priority 1997, dated 2006)
